Data published in patent publication US20030013136A1, “Human KCR1 regulation of HERG potassium channel block” (priority 2000, published 2003).

Assays:
HERG = HERG (Homo sapiens, UniProt Q12809); conditions: 20 min
Method: (§1) The rat KCR1 cDNA was provided by Dr. Haruhiro Higashida, Kanazawa University, Japan. […] MiRP1 cDNA was provided by Dr. Steve Goldstein, (Yale University) in vector pCl-neo (Promega of Madison, Wis.).
(§2) Chinese hamster ovary K1 (CHO-K1) cells were obtained from the American Type Culture Collection (Rockville, Md.) and cultured in Ham's F-12 media (Gibco-BRL of Grand Island, N.Y.) supplemented with 10% fetal bovine serum and 1% pen-strep in a humidified, 5% CO2 incubator at 37° C. CHO-K1 cells were transiently transfected using the Lipofectamine transfection reagents and method (Gibco-BRL). When studying HERG alone or HERG+MiRP1, cells were cotransfected with pGFP-IRS (without KCR1). For experiments examining HERG+KCR1, or HERG+KCR1+MiRP1, GFP expression was obtained via the KCR1-containing pGFP-IRS plasmid. In all cases, cells displaying green fluorescence 48 to 72 hours after transfection were subjected to electrophysiologic analysis.
(§3) Potassium currents were recorded at room temperature (20-22° C.) using the whole-cell patch clamp technique. […] Drug effects were recorded in cells following a pre-drug period where control data were obtained (during pulsing), and a 4 minute drug wash-in period throughout which the cell was held at −80 mV.

HERG+KCR1 = HERG+KCR1 (Homo sapiens, UniProt Q12809); conditions: 20 min
Method: as §1, §2, §3

[1] = molecular target: HERG/MiRP1 complex (human); assay: cell-based or functional assay
HERG/MiRP1 complex (human), sequence (A5H1P7 whole entry, one chain of several): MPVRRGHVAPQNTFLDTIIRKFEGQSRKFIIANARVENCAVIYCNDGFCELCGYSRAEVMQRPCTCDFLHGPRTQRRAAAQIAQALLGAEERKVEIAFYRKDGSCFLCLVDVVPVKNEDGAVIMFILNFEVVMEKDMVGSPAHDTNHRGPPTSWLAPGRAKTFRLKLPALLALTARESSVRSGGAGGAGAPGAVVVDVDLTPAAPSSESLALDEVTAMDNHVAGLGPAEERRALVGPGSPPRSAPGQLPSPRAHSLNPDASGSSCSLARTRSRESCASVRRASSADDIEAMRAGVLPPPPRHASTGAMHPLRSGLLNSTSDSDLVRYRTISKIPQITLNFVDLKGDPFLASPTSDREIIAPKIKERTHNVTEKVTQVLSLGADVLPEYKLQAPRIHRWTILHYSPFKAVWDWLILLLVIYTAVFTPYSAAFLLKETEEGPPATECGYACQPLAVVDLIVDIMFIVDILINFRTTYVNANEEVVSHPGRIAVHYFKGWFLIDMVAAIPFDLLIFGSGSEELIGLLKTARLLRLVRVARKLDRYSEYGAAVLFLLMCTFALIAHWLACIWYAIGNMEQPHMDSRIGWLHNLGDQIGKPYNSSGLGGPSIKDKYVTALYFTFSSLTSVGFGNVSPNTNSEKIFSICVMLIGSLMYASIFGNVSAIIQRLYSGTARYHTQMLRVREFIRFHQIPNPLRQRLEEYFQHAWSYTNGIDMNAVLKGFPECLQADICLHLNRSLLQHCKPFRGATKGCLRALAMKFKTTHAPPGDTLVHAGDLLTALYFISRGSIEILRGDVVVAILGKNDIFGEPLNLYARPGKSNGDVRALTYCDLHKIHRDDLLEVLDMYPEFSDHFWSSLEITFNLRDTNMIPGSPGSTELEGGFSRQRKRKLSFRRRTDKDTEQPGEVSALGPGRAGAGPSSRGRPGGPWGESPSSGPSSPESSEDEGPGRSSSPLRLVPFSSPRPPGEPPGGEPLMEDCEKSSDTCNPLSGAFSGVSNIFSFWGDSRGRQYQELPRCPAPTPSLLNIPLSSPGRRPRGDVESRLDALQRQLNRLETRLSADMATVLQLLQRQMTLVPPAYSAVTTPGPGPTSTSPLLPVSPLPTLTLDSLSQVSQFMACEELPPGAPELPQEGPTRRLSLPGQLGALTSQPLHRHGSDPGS

HERG+KCR1, sequence (Q12809 whole entry): as the sequence (A5H1P7 whole entry, one chain of several) above
HERG, sequence (Q12809 whole entry): as the sequence (A5H1P7 whole entry, one chain of several) above

| Compound | HERG tail current remaining, % of the pre-drug control (HERG) | HERG tail current remaining, % of the pre-drug control (HERG+KCR1) | fast time constant of deactivation at -120 mV, HERG+KCR1+MiRP1 (whole-cell patch clamp, CHO-K1 cells) [1] | slow time constant of deactivation at -120 mV, HERG+KCR1+MiRP1 (whole-cell patch clamp, CHO-K1 cells) [1] |
| --- | --- | --- | --- | --- |
| CC(C)NC[C@@H](O)c1ccc(NS(C)(=O)=O)cc1 [d-sotalol] | 54±9% | 95±6% | – | – |
| rat KCR1 (from UniProt O88788 1-474) | – | – | 22.5 | 251 |
